From patent US11639372B1, “Zinc-charged peptides for the treatment of cancer and alzheimer's disease” (priority 2021, dated 2023)
Where “and” joins values, the source holds several entries; their conditions need not be identical. Equal values may be shown once. Ends that are not written are not given here.

Experiments:
respiratory chain I [1] = assay: respiratory chain I activity, mitochondria of normal colon cells; assay type: biochemical; details: normal CCD8Co colon cells; 5 μM, 2 hours (FIG. 15c)
Description: (§1) For the testing depicted in FIGS. 15a-15d, […] zinc-charged 4H3 was utilized and compared to a control. In this test, mitochondria was isolated from the cell line, and complex I and III activity was tested using a Cayman Mitocheck Complex I & III Activity Kit. […] However, the zinc-charged 4H3 increased the activity of respiratory chain I by 21% but inhibited respiratory chain III by 42% in normal CCD8Co colon cells.

[2] = brain ATP level in mice fed zinc-charged 4H3; assay type: in vivo; details: 1 mg/day for 5 days, oral
Description: (§2) FIGS. 11a-d provide the graphical representations of these observations. FIG. 11a depicts the level of brain ATP in mice that were orally administered zinc-charged 4H3 compared to mice who were given the control. […] FIG. 11b depicts the level of brain Tau protein ATP in mice that were orally administered zinc-charged 4H3 compared to mice who were given the control. In this test, a 2.7 μg protein load was utilized. […] FIG. 11c depicts a retest of FIG. 11b, but with a lower protein load utilized instead. […] Lastly, FIG. 11d depicts the brain P38 MAPK levels in mice that were orally administered zinc-charged 4H3 compared to mice who were given the control. In this test, the mice given the zinc-charged 4H3 saw their brain P38 MAPK levels decrease by 61%.

respiratory chain III [3] = assay: respiratory chain III activity, mitochondria isolated from HT-29 cells; assay type: biochemical; details: HT-29 colon cancer cells; 5 μM, 2 hours (FIG. 15b)
Description: as §1

[4] = tested on: cancer-associated fibroblasts; assay: cellular ATP level in cancer-associated fibroblasts; assay type: cell-based; details: 2 μM, 2 hours
Description: FIGS. 12a-b display a cell culture study showing the ATP levels and hexokinase II activities of CAFs that were cultured with 2 μM zinc-charged 4H3 for 2 hours. […] These findings confirmed that the zinc-charged peptides caused ATP depletion and hexokinase II inhibition in CAFs.

HT-29 colon cancer cells = assay: apoptotic effect on HT-29 cells of saliva from a human volunteer after oral zinc-charged 4H3; assay type: cell-based; details: for time at which saliva-induced apoptotic activity peaked: human volunteer
Description: It has been shown that the zinc-charged peptide induces apoptosis in various cancer lines. FIGS. 1a, 1b, and 2 show this effect of the zinc-charged peptide on the HT-29 cancer cell line after the zinc-charged peptide was given to a human volunteer. Specifically, 200 mg of zinc-charged 4H3 was orally given to the volunteer in a liquid form. The peptide mixture was an undialyzed sample, such that the zinc-charged 4H3 in the liquid had not yet been separated from the saturated EDTA and free zinc.
Saliva samples were then collected from the volunteer at 4-, 6-, 8-, 9-, 12- and 17-hours post-ingestion of the zinc-charged 4H3. The saliva samples were then incubated with HT-29 cancer cells for either 14-hours or 24-hours to observe the apoptotic effect. FIG. 1a depicts the percentage of cell shrinkage and death of HT-29 colon cancer cells after incubation for 14- and 24-hours with the human saliva samples containing the zinc-charged 4H3 noted above. As shown, the saliva sample collected 4-hours post-ingestion has little effect on the HT-29 cancer cells. […] The saliva-induced apoptotic activity thus peaked at 9-hours post-ingestion.
FIGS. 1B-f depicts microscopic slides of the HT-29 cancer cells after being incubated for […] with specific saliva samples. […] FIG. 1d depicts the saliva sample taken from the volunteer 4 hours after the zinc-charged peptide was ingested. FIGS. 1e and 1f depict saliva samples collected from the volunteer after 10-hour ingestion.
FIG. 2 depicts a dry, solid sample of the zinc-charged 4H3 that was administered to a human volunteer. Specifically, 150 mg of zinc-charged 4H3 was orally given to the volunteer in a dry solid form. This sample was dialyzed, dried down, and had arginine added as an absorption enhancer such that the dried powder included only the zinc-charged 4H3 and arginine. As with the test shown in FIG. 1a, the saliva samples were taken from the human subject 0-, 3-, 6-, 9-, 12-, 15-, 18-, 21-, and 24-hours post-ingestion. The saliva samples were then incubated with HT-29 cancer cells, and their apoptotic activity recorded after 6-, 10-, 14-, and 24-hours.

glutaminase = glutaminase activity in HT-29 cell lysate; assay type: cell-based; details: HT-29, 2 μM, 30-90 minutes
From the text: FIGS. 16a-b depict the zinc-charged peptides inhibiting glutaminase activity in HT-29 cancer cells. Glutaminase is another important enzyme responsible for the synthesis of ATP in mitochondria. […] The inhibition of the enzyme glutaminase, along with the inhibition of respiratory chains in cancer cells explain the depletion of ATP in cancer cells shown in FIG. 5.

HT-29 cancer cells = assay: tissue distribution: mouse tissue homogenates incubated with HT-29 cells, percentage of cells under apoptosis; assay type: cell-based; details: mice, five days administration
Description: These observations were confirmed by studying the tissue distribution of the zinc-charged 4H3 in mice after five days administration, as shown in FIG. 3. For these tests, tissue homogenates were taken from the mice five days after receiving the zinc-charged 4H3, then prepared and incubated with HT-29 cancer cells for various times, followed by the determination of the percentage of cell under apoptosis.

[5] = pharmacokinetic study, serum half-life; assay type: in vivo
Tau protein = assay: brain Tau protein in mice (ELISA); assay type: in vivo; details: for decrease in brain Tau protein: 1 mg/mouse, 5 days, oral
Description: as §2

P38 MAPK = assay: brain P38 MAPK level in mice; assay type: in vivo; details: 1 mg/day for 5 days, oral
Description: as §2

respiratory chain I [6] = assay: respiratory chain I activity, mitochondria isolated from HT-29 cells; assay type: biochemical; details: HT-29 colon cancer cells; 5 μM, 2 hours (FIG. 15a)
Description: as §1

[7] = tested on: human pancreatic cancer Bx-PC3-G mouse orthotopic model; assay: orthotopic pancreatic cancer model in mice; assay type: in vivo; details: oral, 21-day period
Description: In this test, two doses of zinc-charged 4H3 and a control of only the vehicle were orally administered to mice with orthotopic pancreatic cancer. The zinc-charged 4H3 was administered in a “low dose” of 0.5 mg per mouse and a “high dose” of 1.0 mg per mouse.

respiratory chain III [8] = assay: respiratory chain III activity, mitochondria of normal colon cells; assay type: biochemical; details: normal CCD8Co colon cells; 5 μM, 2 hours (FIG. 15d)
Description: as §1

Sequence: EYGLFQISNKK [zinc-charged 4H3]
- increase of activity of respiratory chain I (respiratory chain I [1]): 21%
- increase of brain ATP [2]: 89.9% and 89.8%
- inhibition of respiratory chain III (respiratory chain III [3]): 71.2%
- reduction of ATP levels in CAFs [4]: 95.6%
- time at which saliva-induced apoptotic activity peaked (HT-29 colon cancer cells; 150 mg oral, dry solid form with arginine): 12 h
- time at which saliva-induced apoptotic activity peaked (HT-29 colon cancer cells; 200 mg oral, liquid form, undialyzed): 9 hours post-ingestion
- effect of saliva sample on HT-29 cancer cells (HT-29 colon cancer cells; saliva 4 hours after ingestion, 36 hours incubation): very little effect
- effect of saliva sample on HT-29 cancer cells (HT-29 colon cancer cells; saliva after 10-hour ingestion, 36 hours incubation): clear apoptosis activity
- effect of saliva sample on HT-29 cancer cells (HT-29 colon cancer cells; saliva collected 4-hours post-ingestion, 14- and 24-hour incubation, 200 mg liquid): little effect
- effect of saliva sample on HT-29 cancer cells (HT-29 colon cancer cells; saliva collected 10-hours post-ingestion, 14-hour and 24-hour incubations, 200 mg liquid): cell rounded up, cell shrinkage, and membrane blebbing
- amount of glutamate and alpha-ketoglutarate (glutaminase): lower amount
- glutaminase activity in the cell lysate (glutaminase): significantly lower glutaminase activity
- apoptosis activity of tissue homogenate (HT-29 cancer cells; colon): did not display any apoptosis activity
- apoptosis activity of tissue homogenate (HT-29 cancer cells; jaw): did not display any apoptosis activity
- apoptosis activity of tissue homogenate (HT-29 cancer cells; lung): did not display any apoptosis activity
- apoptosis activity of tissue homogenate (HT-29 cancer cells; pancreas): contained apoptosis activity
- half-life [5]: 8 h
- reduction of Tau protein in the brain (Tau protein; 1 mg/day for 5 days, both protein loads): 22.4-27.5%
- decrease in brain Tau protein (Tau protein; 0.55 μg protein load): 22.4%
- decrease in brain Tau protein (Tau protein; 2.7 μg protein load): 27.5%
- reduction of brain P38 MAPK (P38 MAPK): 61%
- inhibition of respiratory chain I (respiratory chain I [6]): 70.9%
- reduction of mean tumor size ([7]; high dose 1.0 mg per mouse): 38.0%
- reduction of mean tumor size ([7]; low dose 0.5 mg per mouse): 28.1%
- inhibition of respiratory chain III (respiratory chain III [8]): 42%
